Assay results reported in patent USRE50528E1, “Compounds and compositions for modulating EGFR mutant kinase activities” (Yuhan Corporation, priority 2014, dated 2025).

Legend:
[1] = target: T1, EGFR mutant Del19 (E746-A750) (Homo sapiens, UniProt P00533, DEL746-750); test: Kinase inhibition assay, EGFR del E746-A750; type: biochemical; conditions: read-out: EGFR mutants Del19 (E746-A750);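 note: truncated human EGFR mutant kinase, two-hour preincubation with compound, then one-hour reaction with ATP and ULight-PolyGT peptide, LANCE Europium-antibody phosphorylation readout, IC50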
T1 construct: truncated human JAK3, EGFR mutants such as del E746-A750; purchased Carna Biosciences

KDR = target: T2, KDR (Homo sapiens, UniProt P35968); test: Kinase inhibition assay, KDR; type: biochemical; conditions: biochemical potency;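 note: purified full-length human KDR, 30 min preincubation with compound, then 1 h reaction with ATP and Ulight-Jak1 peptide substrate, phosphorylation read by Lance Europium antibody detection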
T2 construct: Purified human, full-length SYK, KDR; purchased Carna Biosciences

[2] = system: H1975 (EGFR L858R/T790M mutant); test: Cell viability assay, H1975; type: cell-based; conditions: for IC50: Homo sapiens, NCI-H1975, cellular potency, 72-hour incubation, ATPLite, read-out: EGFR Mutants H1975; for Selectivity over wildtype, Wildtype vs mutant H2073/H1975 (fold): cellular potency ratio;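 for all read-outs here: NSCLC cells whose survival relies on EGFR L858R/T790M, exposed 72 h to serially diluted compound, ATP-based viability readout, with the H2073 line (wildtype EGFR dependent) as wildtype comparator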
JAK3 = target: T3, JAK3 (Homo sapiens, UniProt P52333); test: Kinase inhibition assay, JAK3; conditions: biochemical potency;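 note: IC50 against purified truncated human JAK3 preincubated with compound, then reacted with ATP and ULight-Jak1 peptide, phosphorylation read by Europium-labeled antibody LANCE detection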
T3 construct: EGFR and JAK3 (JH1domain-catalytic) kinases, and mutant forms thereof; purchased Carna Biosciences

EGFR mutant Del19/T790M = target: T4, EGFR mutant Del19/T790M (Homo sapiens, UniProt P00533, DEL746-750/T790M); test: Kinase inhibition assay, EGFR del E746-A750/T790M; type: biochemical; conditions: read-out: EGFR mutants Del19/T790M
T4 construct: truncated human JAK3, EGFR mutants such as del E746-A750; purchased Carna Biosciences

EGFR mutant L858R = target: T5, EGFR mutant L858R (Homo sapiens, UniProt P00533, L858R); test: Kinase inhibition assay, EGFR L858R; type: biochemical; conditions: read-out: EGFR mutants L858R;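 note: truncated human EGFR L858R kinase with compound preincubation, ULight-PolyGT peptide phosphorylation read by Europium-antibody Lance detection, IC50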
T5 construct: truncated human JAK3, EGFR mutants such as del E746-A750; purchased Carna Biosciences

SYK = target: T6, SYK (Homo sapiens, UniProt P43405); test: Kinase inhibition assay, SYK; type: biochemical; conditions: biochemical potency;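 note: purified full-length human SYK pre-incubated 30 min with compound, then ULight-TK peptide phosphorylation for 1 h, detected with Europium-labeled antibody in Lance buffer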
T6 construct: Purified human, full-length SYK, KDR; purchased Carna Biosciences

EGFR mutant L858R/T790M = target: T7, EGFR mutant L858R/T790M (Homo sapiens, UniProt P00533, L858R/T790M); test: Kinase inhibition assay, EGFR L858R/T790M; type: biochemical; conditions: read-out: EGFR mutants L858R/T790M;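 note: truncated human enzyme preincubated two hours with compound, then one hour with one millimolar ATP and ULight-PolyGT peptide, Europium-labeled antibody detection, IC50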
T7 construct: truncated human JAK3, EGFR mutants such as del E746-A750; purchased Carna Biosciences

H2073 (EGFR wildtype) = test: Cell viability assay, H2073; type: cell-based; conditions: NCI-H2073; cellular potency; 72-hour incubation; ATPLite;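 note: NSCLC cell line whose survival relies on wildtype EGFR, treated with serially diluted compound, cytotoxic effect judged from remaining cell viability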
[3] = system: PC9 (EGFR del E746-A750 mutant); test: Cell viability assay, PC9; type: cell-based; conditions: for Selectivity over wildtype, Wildtype vs mutant H2073/PC9 (fold): cellular potency ratio; for IC50: cellular potency, 72-hour incubation, ATPLite, read-out: EGFR Mutants PC9;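 for all read-outs here: NSCLC PC9 cells, whose viability relies on EGFR del E746-A750, exposed to serially diluted compound for 72 h at 37 °C, ATPLite read-out, IC50, H2073 as EGFR wildtype line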
EGFR mutant T790M = target: T8, EGFR mutant T790M (Homo sapiens, UniProt P00533, T790M); test: Kinase inhibition assay, EGFR mutant T790M; conditions: biochemical potency;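 note: truncated human EGFR mutant enzyme preincubated two hours with compound, then ATP plus ULight-PolyGT peptide for one hour, Europium-labeled antibody LANCE detection, IC50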
T8 construct: truncated human JAK3, EGFR mutants such as del E746-A750; purchased Carna Biosciences
T8 sequence (P00533 669-1210 T790M limits assumed): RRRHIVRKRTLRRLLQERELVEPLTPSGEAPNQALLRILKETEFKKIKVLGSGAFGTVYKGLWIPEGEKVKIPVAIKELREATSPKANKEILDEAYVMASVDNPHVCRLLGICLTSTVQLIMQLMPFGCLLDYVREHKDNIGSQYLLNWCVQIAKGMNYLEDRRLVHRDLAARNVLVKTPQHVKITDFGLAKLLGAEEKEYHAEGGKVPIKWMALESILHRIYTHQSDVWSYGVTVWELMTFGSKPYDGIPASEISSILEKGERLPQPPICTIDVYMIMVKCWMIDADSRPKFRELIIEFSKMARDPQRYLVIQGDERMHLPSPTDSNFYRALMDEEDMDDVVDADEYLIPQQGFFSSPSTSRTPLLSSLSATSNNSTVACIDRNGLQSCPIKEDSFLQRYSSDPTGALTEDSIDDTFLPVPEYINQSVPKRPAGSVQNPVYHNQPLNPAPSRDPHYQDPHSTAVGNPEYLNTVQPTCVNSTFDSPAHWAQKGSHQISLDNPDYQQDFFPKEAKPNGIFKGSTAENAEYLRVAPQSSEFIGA

T2 sequence (P35968 20-1356): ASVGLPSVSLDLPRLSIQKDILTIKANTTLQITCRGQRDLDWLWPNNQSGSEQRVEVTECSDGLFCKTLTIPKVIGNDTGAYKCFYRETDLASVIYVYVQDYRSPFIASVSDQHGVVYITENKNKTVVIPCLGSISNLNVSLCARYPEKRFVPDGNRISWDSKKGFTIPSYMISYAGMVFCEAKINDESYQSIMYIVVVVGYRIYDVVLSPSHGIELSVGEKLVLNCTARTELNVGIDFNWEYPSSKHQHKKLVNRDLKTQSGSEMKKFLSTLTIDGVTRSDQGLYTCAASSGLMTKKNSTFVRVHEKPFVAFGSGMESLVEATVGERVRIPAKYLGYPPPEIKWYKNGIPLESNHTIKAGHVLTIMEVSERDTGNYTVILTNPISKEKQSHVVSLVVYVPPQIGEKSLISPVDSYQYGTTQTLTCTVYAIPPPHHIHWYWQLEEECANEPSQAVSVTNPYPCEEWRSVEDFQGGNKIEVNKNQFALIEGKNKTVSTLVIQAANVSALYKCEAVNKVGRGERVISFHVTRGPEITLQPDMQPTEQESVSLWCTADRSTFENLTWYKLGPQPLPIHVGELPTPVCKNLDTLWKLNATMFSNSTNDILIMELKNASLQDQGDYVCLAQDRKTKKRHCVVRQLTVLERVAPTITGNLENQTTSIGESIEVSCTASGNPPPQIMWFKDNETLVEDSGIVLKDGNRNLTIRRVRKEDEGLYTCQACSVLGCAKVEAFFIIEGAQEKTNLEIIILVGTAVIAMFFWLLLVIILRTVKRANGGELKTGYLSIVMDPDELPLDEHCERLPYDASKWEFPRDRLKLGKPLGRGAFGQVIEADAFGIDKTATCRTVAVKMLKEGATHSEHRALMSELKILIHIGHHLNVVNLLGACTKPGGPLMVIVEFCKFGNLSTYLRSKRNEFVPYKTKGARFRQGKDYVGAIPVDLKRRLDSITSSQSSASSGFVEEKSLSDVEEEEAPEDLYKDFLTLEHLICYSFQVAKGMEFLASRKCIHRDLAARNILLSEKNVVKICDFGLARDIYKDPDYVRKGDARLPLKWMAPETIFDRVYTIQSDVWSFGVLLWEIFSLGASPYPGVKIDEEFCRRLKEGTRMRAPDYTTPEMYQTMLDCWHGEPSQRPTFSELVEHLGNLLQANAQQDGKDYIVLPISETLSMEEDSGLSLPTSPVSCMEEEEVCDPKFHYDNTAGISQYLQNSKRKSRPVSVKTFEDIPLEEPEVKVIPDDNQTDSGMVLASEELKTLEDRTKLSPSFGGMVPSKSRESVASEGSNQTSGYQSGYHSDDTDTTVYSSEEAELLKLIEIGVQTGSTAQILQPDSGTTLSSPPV
T5 sequence (P00533 669-1210 L858R limits assumed): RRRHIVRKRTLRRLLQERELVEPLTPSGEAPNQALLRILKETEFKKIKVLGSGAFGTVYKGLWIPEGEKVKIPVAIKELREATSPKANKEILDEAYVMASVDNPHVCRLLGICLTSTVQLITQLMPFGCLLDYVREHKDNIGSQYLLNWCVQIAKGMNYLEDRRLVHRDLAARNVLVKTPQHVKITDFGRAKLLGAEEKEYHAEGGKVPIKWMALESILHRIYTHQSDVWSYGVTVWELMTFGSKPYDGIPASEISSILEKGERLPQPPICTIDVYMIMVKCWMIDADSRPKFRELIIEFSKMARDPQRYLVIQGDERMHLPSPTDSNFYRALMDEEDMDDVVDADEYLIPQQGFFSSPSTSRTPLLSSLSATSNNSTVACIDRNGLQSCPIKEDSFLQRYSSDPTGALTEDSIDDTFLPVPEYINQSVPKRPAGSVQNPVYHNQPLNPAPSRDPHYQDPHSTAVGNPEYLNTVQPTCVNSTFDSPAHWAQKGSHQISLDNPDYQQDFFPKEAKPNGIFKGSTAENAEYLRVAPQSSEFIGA
T4 sequence (P00533 with tags, fused parts or gaps DEL746-750/T790M limits assumed): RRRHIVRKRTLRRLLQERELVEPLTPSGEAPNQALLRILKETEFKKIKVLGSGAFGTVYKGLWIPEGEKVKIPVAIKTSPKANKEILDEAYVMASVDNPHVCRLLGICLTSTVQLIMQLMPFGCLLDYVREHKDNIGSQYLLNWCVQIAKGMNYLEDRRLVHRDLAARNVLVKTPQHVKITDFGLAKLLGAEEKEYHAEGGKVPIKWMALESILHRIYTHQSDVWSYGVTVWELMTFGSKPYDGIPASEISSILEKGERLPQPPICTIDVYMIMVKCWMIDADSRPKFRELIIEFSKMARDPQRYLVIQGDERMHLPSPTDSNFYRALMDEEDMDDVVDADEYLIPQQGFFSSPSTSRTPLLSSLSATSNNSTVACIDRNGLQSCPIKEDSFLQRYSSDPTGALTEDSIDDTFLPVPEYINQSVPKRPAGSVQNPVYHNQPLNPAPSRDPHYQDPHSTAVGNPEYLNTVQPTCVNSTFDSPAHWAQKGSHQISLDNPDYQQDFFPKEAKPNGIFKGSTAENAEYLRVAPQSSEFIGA
T7 sequence (P00533 669-1210 T790M/L858R limits assumed): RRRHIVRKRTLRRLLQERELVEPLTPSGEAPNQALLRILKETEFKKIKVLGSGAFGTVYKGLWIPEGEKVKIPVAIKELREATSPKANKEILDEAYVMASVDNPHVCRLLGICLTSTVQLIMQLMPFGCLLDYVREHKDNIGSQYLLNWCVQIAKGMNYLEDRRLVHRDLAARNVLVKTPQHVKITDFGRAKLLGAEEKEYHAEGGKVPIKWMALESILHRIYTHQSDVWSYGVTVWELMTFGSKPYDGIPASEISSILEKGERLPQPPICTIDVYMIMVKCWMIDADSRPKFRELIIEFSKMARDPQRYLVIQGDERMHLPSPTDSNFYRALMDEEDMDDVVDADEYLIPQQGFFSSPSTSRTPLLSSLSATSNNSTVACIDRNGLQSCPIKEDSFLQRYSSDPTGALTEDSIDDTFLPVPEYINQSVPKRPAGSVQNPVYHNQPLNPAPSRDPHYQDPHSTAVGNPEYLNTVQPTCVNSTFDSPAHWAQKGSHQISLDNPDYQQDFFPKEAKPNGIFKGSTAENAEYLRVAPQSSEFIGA
T3 sequence (P52333 822-1111 limits assumed): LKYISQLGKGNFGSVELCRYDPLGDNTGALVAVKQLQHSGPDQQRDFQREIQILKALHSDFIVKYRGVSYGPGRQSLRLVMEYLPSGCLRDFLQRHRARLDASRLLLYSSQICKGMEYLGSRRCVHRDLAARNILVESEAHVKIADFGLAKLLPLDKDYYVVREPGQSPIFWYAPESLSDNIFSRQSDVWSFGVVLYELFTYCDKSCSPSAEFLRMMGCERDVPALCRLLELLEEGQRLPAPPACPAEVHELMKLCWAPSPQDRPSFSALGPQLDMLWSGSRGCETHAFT
T1 sequence (P00533 with tags, fused parts or gaps DEL746-750 limits assumed): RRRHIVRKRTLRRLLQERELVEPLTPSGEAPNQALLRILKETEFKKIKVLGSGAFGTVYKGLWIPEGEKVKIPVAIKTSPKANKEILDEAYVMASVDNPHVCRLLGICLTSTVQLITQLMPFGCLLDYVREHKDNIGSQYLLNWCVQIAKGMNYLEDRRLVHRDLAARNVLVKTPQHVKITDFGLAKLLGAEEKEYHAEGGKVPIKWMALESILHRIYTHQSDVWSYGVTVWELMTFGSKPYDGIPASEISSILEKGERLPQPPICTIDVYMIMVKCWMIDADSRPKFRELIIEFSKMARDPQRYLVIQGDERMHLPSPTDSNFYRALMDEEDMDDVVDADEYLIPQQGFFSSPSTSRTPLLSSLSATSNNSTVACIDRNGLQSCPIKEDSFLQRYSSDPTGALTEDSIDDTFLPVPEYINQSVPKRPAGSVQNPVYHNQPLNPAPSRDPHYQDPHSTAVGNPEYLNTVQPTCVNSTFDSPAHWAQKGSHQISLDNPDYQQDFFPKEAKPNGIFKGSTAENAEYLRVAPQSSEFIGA

| Compound | IC50 [1] | IC50 (KDR) | IC50 [2] | Selectivity over wildtype, Wildtype vs mutant H2073/H1975 (fold) [2] | IC50 (JAK3) | IC50 (EGFR mutant Del19/T790M) | IC50 (EGFR mutant L858R) | IC50 (SYK) | IC50 (EGFR mutant L858R/T790M) | IC50 (H2073 (EGFR wildtype)) | Selectivity over wildtype, Wildtype vs mutant H2073/PC9 (fold) [3] | IC50 [3] | IC50 (EGFR mutant T790M) |
| --- | --- | --- | --- | --- | --- | --- | --- | --- | --- | --- | --- | --- | --- |
| C=CC(=O)Nc1cc(Nc2ncc(C)c(-n3cc(CN4C[C@@H](O)[C@@H](O)C4)c(C)n3)n2)c(OC)cc1N1CCOCC1 [Compound 25, N-(5-(4-(4-(((3R,4S)-3,4-dihydroxypyrrolidin-1-yl)methyl)-3-methyl-1H-pyrazol-1-yl)-5-methylpyrimidin-2-ylamino)-4-methoxy-2-morpholinophenyl)acrylamide] | < 20 nM | > 1000 nM | < 20 nM | 101-200 fold | < 20 nM | < 20 nM | < 20 nM | 201 to 1000 nM | < 20 nM | > 1000 nM | >200 fold | < 20 nM | < 20 nM |
| C=CC(=O)Nc1cc(Nc2ncc(C)c(-n3cc(CN4CC(O)C4)c(C)n3)n2)c(OC)cc1N1CCN(C)CC1 [Compound 29, N-(5-(4-(4-((3-hydroxyazetidin-1-yl)methyl)-3-methyl-1H-pyrazol-1-yl)-5-methylpyrimidin-2-ylamino)-4-methoxy-2-(4-methylpiperazin-1-yl)phenyl)acrylamide] | < 20 nM | > 1000 nM | 20 to 200 nM | <20 fold | < 20 nM | < 20 nM | < 20 nM | 20 to 200 nM | < 20 nM | > 1000 nM | <20 fold | 20 to 200 nM | < 20 nM |
| C=CC(=O)Nc1cc(Nc2ncc(C)c(-n3cc(CN4CCC4)cn3)n2)c(OC)cc1N1CCOCC1 [Compound 32, N-(5-(4-(4-(azetidin-1-ylmethyl)-1H-pyrazol-1-yl)-5-methylpyrimidin-2-ylamino)-4-methoxy-2-morpholinophenyl)acrylamide] | < 20 nM | > 1000 nM | 20 to 200 nM | 20-100 fold | < 20 nM | < 20 nM | < 20 nM | 201 to 1000 nM | < 20 nM | > 1000 nM | 20-100 fold | 201 to 1000 nM | < 20 nM |
| C=CC(=O)Nc1cc(Nc2ncc(C)c(-n3cc(CN4CCC4)cn3)n2)c(OC)cc1N1CCN(C)CC1 [Compound 36, N-(5-(4-(4-(azetidin-1-ylmethyl)-1H-pyrazol-1-yl)-5-methylpyrimidin-2-ylamino)-4-methoxy-2-(4-methylpiperazin-1-yl)phenyl)acrylamide] | < 20 nM | > 1000 nM | 20 to 200 nM | 20-100 fold | < 20 nM | < 20 nM | < 20 nM | > 1000 nM | < 20 nM | > 1000 nM | 20-100 fold | 20 to 200 nM | < 20 nM |
| C=CC(=O)Nc1cc(Nc2ncc(C)c(-n3cc(CN4CCC4)cn3)n2)c(OC)cc1N(C)CCN(C)C [Compound 42, N-(5-(4-(4-(azetidin-1-ylmethyl)-1H-pyrazol-1-yl)-5-methylpyrimidin-2-ylamino)-2-((2-(dimethylamino)ethyl)(methyl)amino)-4-methoxyphenyl)acrylamide] | < 20 nM | > 1000 nM | 20 to 200 nM | >200 fold | < 20 nM | < 20 nM | 20 to 200 nM | > 1000 nM | < 20 nM | > 1000 nM | 20-100 fold | 201 to 1000 nM | < 20 nM |
| C=CC(=O)Nc1cc(Nc2ncc(C)c(-n3cc(C)c(CN4CC(O)C4)c3)n2)c(OC)cc1N1CCOCC1 [Compound 48, N-(5-(4-(3-((3-hydroxyazetidin-1-yl)methyl)-4-methyl-1H-pyrrol-1-yl)-5-methylpyrimidin-2-ylamino)-4-methoxy-2-morpholinophenyl)acrylamide] | < 20 nM | > 1000 nM | 201 to 1000 nM | <20 fold | < 20 nM | < 20 nM | 20 to 200 nM | 201 to 1000 nM | < 20 nM | > 1000 nM | <20 fold | 201 to 1000 nM | < 20 nM |
| C=CC(=O)Nc1cc(Nc2ncc(Cl)c(-n3cc(CN4CCC4)c(C)n3)n2)c(OC)cc1N1CCOCC1 [Compound 50, N-(5-(4-(4-(azetidin-1-ylmethyl)-3-methyl-1H-pyrazol-1-yl)-5-chloropyrimidin-2-ylamino)-4-methoxy-2-morpholinophenyl)acrylamide] | < 20 nM | > 1000 nM | 20 to 200 nM | >200 fold | < 20 nM | < 20 nM | 20 to 200 nM | > 1000 nM | < 20 nM | > 1000 nM | 101-200 fold | 20 to 200 nM | < 20 nM |
| C=CC(=O)Nc1cc(Nc2ncc(Cl)c(-n3cc(CN4C[C@@H](O)[C@@H](O)C4)c(C)n3)n2)c(OC)cc1N1CCN(C)CC1 [Compound 54, N-(5-(5-chloro-4-(4-(((3R,4S)-3,4-dihydroxypyrrolidin-1-yl)methyl)-3-methyl-1H-pyrazol-1-yl)pyrimidin-2-ylamino)-4-methoxy-2-(4-methylpiperazin-1-yl)phenyl)acrylamide] | < 20 nM | > 1000 nM | 201 to 1000 nM | <20 fold | < 20 nM | < 20 nM | 20 to 200 nM | > 1000 nM | < 20 nM | > 1000 nM | 20-100 fold | 20 to 200 nM | < 20 nM |
| C=CC(=O)Nc1cc(Nc2nccc(-n3cc(CN4CCC4)c(C4CC4)n3)n2)c(OC)cc1N1CCOCC1 [Compound 55, N-(5-(4-(4-(azetidin-1-ylmethyl)-3-cyclopropyl-1H-pyrazol-1-yl)pyrimidin-2-ylamino)-4-methoxy-2-morpholinophenyl)acrylamide] | < 20 nM | > 1000 nM | 20 to 200 nM | 101-200 fold | < 20 nM | < 20 nM | < 20 nM | > 1000 nM | < 20 nM | > 1000 nM | >200 fold | < 20 nM | < 20 nM |
| C=CC(=O)Nc1cc(Nc2ncc(F)c(-n3cc(CN4CCC4)c(C)n3)n2)c(OC)cc1N1CCOCC1 [Compound 62, N-(5-(4-(4-(azetidin-1-ylmethyl)-3-methyl-1H-pyrazol-1-yl)-5-fluoropyrimidin-2-ylamino)-4-methoxy-2-morpholinophenyl)acrylamide] | < 20 nM | > 1000 nM | 20 to 200 nM | >200 fold | < 20 nM | < 20 nM | < 20 nM | > 1000 nM | < 20 nM | > 1000 nM | >200 fold | 20 to 200 nM | < 20 nM |
| C=CC(=O)Nc1cc(Nc2nccc(-n3cc(CN(C)C)c(C)n3)n2)c(OC)cc1N(C)C [Compound 71, N-(2-(dimethylamino)-5-(4-(4-((dimethylamino)methyl)-3-methyl-1H-pyrazol-1-yl)pyrimidin-2-ylamino)-4-methoxyphenyl)acrylamide] | < 20 nM | > 1000 nM | < 20 nM | >200 fold | < 20 nM | < 20 nM | < 20 nM | 201 to 1000 nM | < 20 nM | > 1000 nM | >200 fold | < 20 nM | < 20 nM |
| C=CC(=O)Nc1cc(Nc2ncc(C)c(-n3cc(CN(C)C)c(C)n3)n2)c(OC)cc1N1CCOCC1 [Compound 75, N-(5-(4-(4-((dimethylamino)methyl)-3-methyl-1H-pyrazol-1-yl)-5-methylpyrimidin-2-ylamino)-4-methoxy-2-morpholinophenyl)acrylamide] | < 20 nM | > 1000 nM | 20 to 200 nM | 101-200 fold | < 20 nM | < 20 nM | < 20 nM | 20 to 200 nM | < 20 nM | > 1000 nM | 101-200 fold | 20 to 200 nM | < 20 nM |
